US7129269B2, “Compound” (Sterix Ltd., priority 1996, dated 2006)
Several values for one entry are separate records, joined by “and”; a condition that tells them apart may be missing. Equal entries are not always repeated.

Tests used:
[1] = biological target: T1, oestrone sulphatase (E1-STS) (Homo sapiens, UniProt P08842); assay: Oestrone sulphatase (E1-STS) inhibition in intact MCF-7 breast cancer cells; type: cell-based
T1 construct: endogenous in cells; host or cells: MCF-7 breast cancer cells
T1 sequence (P08842 22-583): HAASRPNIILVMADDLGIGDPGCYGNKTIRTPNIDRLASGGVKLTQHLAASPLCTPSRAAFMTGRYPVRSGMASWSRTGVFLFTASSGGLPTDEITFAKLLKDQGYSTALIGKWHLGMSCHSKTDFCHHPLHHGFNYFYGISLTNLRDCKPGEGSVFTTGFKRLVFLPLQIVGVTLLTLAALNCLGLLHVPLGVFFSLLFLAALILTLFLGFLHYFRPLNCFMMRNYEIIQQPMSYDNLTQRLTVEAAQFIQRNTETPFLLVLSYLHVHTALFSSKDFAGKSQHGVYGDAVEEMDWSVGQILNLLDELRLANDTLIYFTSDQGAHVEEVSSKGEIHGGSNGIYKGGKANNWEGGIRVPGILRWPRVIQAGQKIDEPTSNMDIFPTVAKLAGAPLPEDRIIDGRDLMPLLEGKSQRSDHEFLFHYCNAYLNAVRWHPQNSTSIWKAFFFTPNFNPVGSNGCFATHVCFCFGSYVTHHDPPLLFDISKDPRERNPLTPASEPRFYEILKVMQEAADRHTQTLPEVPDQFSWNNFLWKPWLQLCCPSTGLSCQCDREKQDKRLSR

aromatase = biological target: T2, aromatase (Homo sapiens, UniProt P11511); assay: Aromatase inhibition in placental microsomes, tritiated water release assay
T2 sequence (P11511 1-503): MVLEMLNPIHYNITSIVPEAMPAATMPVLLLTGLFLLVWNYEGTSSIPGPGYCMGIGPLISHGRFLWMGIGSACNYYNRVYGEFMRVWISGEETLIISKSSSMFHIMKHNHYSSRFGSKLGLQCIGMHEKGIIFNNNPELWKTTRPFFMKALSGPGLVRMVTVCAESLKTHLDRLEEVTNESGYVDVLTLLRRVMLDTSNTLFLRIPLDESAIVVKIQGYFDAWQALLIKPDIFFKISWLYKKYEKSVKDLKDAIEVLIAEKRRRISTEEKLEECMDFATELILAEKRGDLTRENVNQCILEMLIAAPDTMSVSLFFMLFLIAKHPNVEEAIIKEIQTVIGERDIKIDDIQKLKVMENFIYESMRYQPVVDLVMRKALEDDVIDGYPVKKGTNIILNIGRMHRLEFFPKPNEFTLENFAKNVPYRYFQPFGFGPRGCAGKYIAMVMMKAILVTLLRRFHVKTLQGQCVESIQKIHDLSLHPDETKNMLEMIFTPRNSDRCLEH

oestrone sulphatase [2] = biological target: T3, oestrone sulphatase (Rattus norvegicus, UniProt P15589); assay: In vivo inhibition of oestrone sulphatase activity in rat liver; conditions: 24 hours after single oral dose in propylene glycol; for % Inhibition of oestrone sulphatase in vivo: 10 mg/Kg
T3 construct: from tissue; host or cells: rat liver
T3 sequence (P15589 20-577): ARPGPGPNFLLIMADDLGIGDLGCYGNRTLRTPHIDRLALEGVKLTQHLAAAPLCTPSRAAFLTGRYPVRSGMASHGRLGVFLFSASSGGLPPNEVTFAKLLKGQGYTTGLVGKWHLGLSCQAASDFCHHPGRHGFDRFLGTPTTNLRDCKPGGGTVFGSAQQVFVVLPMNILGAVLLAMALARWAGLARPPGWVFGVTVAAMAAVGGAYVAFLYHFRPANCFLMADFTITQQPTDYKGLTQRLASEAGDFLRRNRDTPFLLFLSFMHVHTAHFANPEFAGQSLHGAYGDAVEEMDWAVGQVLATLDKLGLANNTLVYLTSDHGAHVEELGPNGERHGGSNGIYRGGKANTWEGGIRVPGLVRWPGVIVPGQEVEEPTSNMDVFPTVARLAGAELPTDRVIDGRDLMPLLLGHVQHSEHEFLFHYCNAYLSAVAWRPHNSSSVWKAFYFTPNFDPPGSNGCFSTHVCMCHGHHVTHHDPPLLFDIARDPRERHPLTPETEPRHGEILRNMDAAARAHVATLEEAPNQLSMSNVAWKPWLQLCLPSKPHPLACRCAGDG
Method: FIG. 11 presents in vivo inhibition of oestrone sulphatase activity in rat liver for two isoflavones according to the present invention. […] Compounds were administered as a single 10 mg/Kg dose. Oestrone sulphatase activity was assayed in tissue samples obtained 24 h after drug administration.

oestrone sulphatase [3] = biological target: T4, oestrone sulphatase (Homo sapiens, UniProt P08842); assay: Oestrone sulphatase inhibition in placental microsomes; type: biochemical; conditions: compared with 19
T4 construct: from tissue; host or cells: placenta (microsomes, 100,000 g)
T4 sequence (P08842 22-583): T1 sequence (P08842 22-583)

% Inhibition of sulphatase activity in MCF-7 cells ([1]; 0.1 μM) | % Inhibition of sulphatase activity in MCF-7 cells ([1]; 1 μM) | % Inhibition of sulphatase activity in MCF-7 cells ([1]; 10 μM) | inhibition of E1-STS activity in placental microsomes (in words) (oestrone sulphatase [3]) | inhibition of E1-STS activity in MCF-7 cells (in words) [1] | Structure (SMILES) | % Inhibition of aromatase activity in placental microsomes at 10 μM (aromatase) | % Inhibition of oestrone sulphatase in vivo (oestrone sulphatase [2]) | inhibition at 1 mg/kg (oestrone sulphatase [2]; 1 mg/Kg)
* (*Inactive) | * (*Inactive) | * (*Inactive) |  |  | COc1cc(-c2oc3cc(O)cc(O)c3c(=O)c2OS(N)(=O)=O)cc(OC)c1OC [Compound 13, 5,7-Dihydroxy-3′,4′,5′-Trimethoxy flavone-3-O-sulphamate] |  |  | 
* (*Inactive) | 8 ± 6.4% | 12 ± 7.5% |  |  | NS(=O)(=O)Oc1cc(O)c2c(=O)c(OS(N)(=O)=O)c(-c3ccccc3)oc2c1 [Compound 10, 5-Hydroxy flavone-3,7-O,O-bisulphamate] |  |  | 
29 ± 0.8% | 23 ± 1.8% | 12 ± 0.5% |  |  | COc1ccc(-c2cc(=O)c3c(OC)c(OC)c(OC)cc3o2)cc1OS(N)(=O)=O [Compound 7, 4′,5,6,7-Tetramethoxy flavone-3′-O-sulphamate] |  |  | 
* (*Inactive) | * (*Inactive) | * (*Inactive) |  |  | COc1cc(-c2oc3cc(OS(N)(=O)=O)cc(O)c3c(=O)c2OS(N)(=O)=O)cc(OC)c1OC [Compound 12, 5-Hydroxy-3′,4′,5′-Trimethoxy flavone-3,7-O,O-bisulphamate] |  |  | 
* (*Inactive) | * (*Inactive) | * (*Inactive) |  |  | COc1cc(-c2oc3cc(O)ccc3c(=O)c2OS(N)(=O)=O)cc(OC)c1OC [Compound 15, 7-Hydroxy 3′,4′,5′-Trimethoxy flavone-3-O-sulphamate] |  |  | 
0.30 ± 0.2% | 1.8 ± 1.0% | 4.9 ± 0.3% |  |  | NS(=O)(=O)Oc1ccc2c(=O)cc(-c3ccccc3)oc2c1 [Compound 1, Flavone-7-O-sulphamate] |  |  | 
11 ± 2.7% | 51 ± 3.0% | 78 ± 1.7% |  |  | COc1cc2oc(-c3ccccc3)cc(=O)c2c(O)c1OS(N)(=O)=O [Compound 4, 5-Hydroxy-7-methoxy flavone-6-O-sulphamate] |  |  | 
35 ± 4.0% | 88 ± 3.1% | 99 ± 0.6% |  |  | COc1cc(O)c2c(=O)cc(-c3ccc(OS(N)(=O)=O)cc3)oc2c1 [Compound 5, 5-Hydroxy-7-methoxy-flavone-4′-O-sulphamate] |  |  | 
 |  |  |  |  | C[C@]12CC[C@@H]3c4ccc(OS(N)(=O)=O)cc4CC[C@H]3[C@@H]1CCC2=O [EMATE, oestrone-3-sulphamate, reference compound] |  |  | > 99%
>99% | >99% | >99% | less potent | less potent | NS(=O)(=O)Oc1ccc(C2COc3cc(OS(N)(=O)=O)ccc3C2)cc1 (racemic) [Compound 22, (±) Isoflavane-7,4′-O,O-bisulphamate] | 13% |  | 
* (*Inactive) | 13 ± 8.0% | 29 ± 1.3% |  |  | NS(=O)(=O)Oc1ccc(-c2cc(=O)c3ccccc3o2)cc1OS(N)(=O)=O [Compound 8, Flavone-3′,4′-O,O-bisulphamate] |  |  | 
* (*Inactive) | * (*Inactive) | * (*Inactive) |  |  | COc1ccc(-c2oc3cc(OS(N)(=O)=O)cc(O)c3c(=O)c2OS(N)(=O)=O)cc1 [Compound 11, 5-Hydroxy-4′-methoxy flavone-3,7-O,O-bisulphamate] |  |  | 
* (*Inactive) | * (*Inactive) | * (*Inactive) |  |  | COc1cc(-c2oc3cc(OS(N)(=O)=O)ccc3c(=O)c2OS(N)(=O)=O)cc(OC)c1OC [Compound 14, 3′,4′,5′-Trimethoxy flavone-3,7-O,O-bisulphamate] |  |  | 
2 ± 1.3% | 8 ± 0.6% | 9 ± 1.2% |  |  | COc1ccc(C2CC(=O)c3c(O)cc(OS(N)(=O)=O)cc3O2)cc1OS(N)(=O)=O (stereo not drawn) [Compound 21, 5-Hydroxy 4′-methoxy flavanone-3′,7-O,O-bisulphamate] |  |  | 
 | 99.1 ± 0.6% | 98.9 ± 1.3% |  |  | NS(=O)(=O)Oc1ccc2oc(-c3ccccc3)cc(=O)c2c1 [Compound 2, Flavone-6-O-sulphamate] |  |  | 
8 ± 2.6% | 79 ± 0.8% | 98 ± 0.4% |  |  | NS(=O)(=O)Oc1ccc(-c2cc(=O)c3c(O)cc(OS(N)(=O)=O)cc3o2)cc1 [Compound 9, 5-Hydroxy flavone-4′,7-O,O-bisulphamate] |  |  | 
 |  |  |  |  | NS(=O)(=O)Oc1ccc(-c2coc3cc(OS(N)(=O)=O)ccc3c2=O)cc1 [Compound 19, Isoflavone-4′,7-O,O-bisulphamate] | * (*Inactive) | 71.4 ± 2.9% | 
* (*Inactive) | 18 ± 6.1% | 27 ± 3.5% |  |  | COc1ccc(-c2cc(=O)c3c(O)c(OC)c(OC)cc3o2)cc1OS(N)(=O)=O [Compound 6, 5-Hydroxy 4′,6,7-Trimethoxy flavone-3′-O-sulphamate] |  |  | 

Structure (SMILES) | % Inhibition of sulphatase activity in MCF-7 cells ([1]; 0.1 μM) | % Inhibition of sulphatase activity in MCF-7 cells ([1]; 1 μM) | % Inhibition of sulphatase activity in MCF-7 cells ([1]; 10 μM) | inhibition of E1-STS activity in placental microsomes (in words) (oestrone sulphatase [3]) | inhibition of E1-STS activity in MCF-7 cells (in words) [1] | % Inhibition of aromatase activity in placental microsomes at 10 μM (aromatase) | % Inhibition of oestrone sulphatase in vivo (oestrone sulphatase [2]) | inhibition at 1 mg/kg (oestrone sulphatase [2]; 1 mg/Kg)
NS(=O)(=O)Oc1ccc(-c2coc3cc(O)cc(O)c3c2=O)cc1 [Compound 18, 5,7-Dihydroxy isoflavone-4′-O-sulphamate] | 23 ± 2.2% | 83 ± 2.7% | 99 ± 0.7% |  |  | * (*Inactive) | 62.0 ± 4.7% | 
COc1ccc(-c2coc3cc(OS(N)(=O)=O)cc(O)c3c2=O)cc1 [Compound 16, 5-Hydroxy-4′-methoxyisoflavone 7-O-sulphamate] | * (*Inactive) | 11 ± 3.0% | 37 ± 1.7% |  |  | * (*Inactive) |  | 
NS(=O)(=O)Oc1ccc(-c2coc3cc(OS(N)(=O)=O)cc(O)c3c2=O)cc1 [Compound 17, 5-Hydroxy isoflavone-4′,7-O,O-bisulphamate] | 22–87% and 28 ± 1.7% | 79–99% |  |  |  | * (*Inactive) | 81.4 ± 3.2% | 
